# Experimental data from ChEMBL document CHEMBL6153032, “Discovery of a highly potent, N-terminal domain-targeting degrader of AR-FL/AR-V7 for the treatment of prostate cancer” (Eur J Med Chem, 2025).
# pIC50: −log10 of the molar value.
# System: Protein cereblon/Androgen receptor (Homo sapiens), P10275+Q96SW2 [UNDEFINED MUTATION]
# Assay: PROTAC activity at AR-V7/CRBN in human 22Rv1 cells assessed as induction of AR-V7 degradation at 5 uM incubated for 24 hrs by Western blot analysis relative to control
# Assay type: cell-based
# Details: CWR22R
# Protein cereblon/Androgen receptor (Homo sapiens), P10275+Q96SW2 [UNDEFINED MUTATION], sequence (P10275 whole entry, looked up, change not shown): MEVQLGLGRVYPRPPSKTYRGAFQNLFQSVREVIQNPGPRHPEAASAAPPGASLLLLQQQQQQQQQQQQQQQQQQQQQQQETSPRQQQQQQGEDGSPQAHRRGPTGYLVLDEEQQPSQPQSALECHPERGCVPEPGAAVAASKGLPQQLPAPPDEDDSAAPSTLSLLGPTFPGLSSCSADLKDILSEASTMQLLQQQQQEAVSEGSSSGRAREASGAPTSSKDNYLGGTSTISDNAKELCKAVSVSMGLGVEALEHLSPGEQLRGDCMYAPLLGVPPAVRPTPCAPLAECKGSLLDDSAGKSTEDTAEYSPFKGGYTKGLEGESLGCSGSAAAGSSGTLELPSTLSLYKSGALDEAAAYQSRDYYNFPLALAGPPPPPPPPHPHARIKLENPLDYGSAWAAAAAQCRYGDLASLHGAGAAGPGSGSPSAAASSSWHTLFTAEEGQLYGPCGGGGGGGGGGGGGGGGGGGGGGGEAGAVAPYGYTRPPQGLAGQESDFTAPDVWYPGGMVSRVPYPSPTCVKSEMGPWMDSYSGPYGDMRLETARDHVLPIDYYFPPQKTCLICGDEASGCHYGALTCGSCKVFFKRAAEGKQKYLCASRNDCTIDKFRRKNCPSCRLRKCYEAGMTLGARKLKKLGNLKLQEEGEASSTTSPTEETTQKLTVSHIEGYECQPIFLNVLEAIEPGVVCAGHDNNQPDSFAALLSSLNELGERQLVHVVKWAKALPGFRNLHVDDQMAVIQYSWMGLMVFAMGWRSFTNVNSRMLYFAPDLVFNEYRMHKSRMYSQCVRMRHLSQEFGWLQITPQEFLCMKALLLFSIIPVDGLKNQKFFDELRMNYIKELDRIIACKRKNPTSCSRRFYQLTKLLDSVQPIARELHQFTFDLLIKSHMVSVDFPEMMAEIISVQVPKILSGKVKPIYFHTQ
# Protein cereblon/Androgen receptor (Homo sapiens), P10275+Q96SW2 [UNDEFINED MUTATION], sequence (Q96SW2 whole entry, looked up, change not shown): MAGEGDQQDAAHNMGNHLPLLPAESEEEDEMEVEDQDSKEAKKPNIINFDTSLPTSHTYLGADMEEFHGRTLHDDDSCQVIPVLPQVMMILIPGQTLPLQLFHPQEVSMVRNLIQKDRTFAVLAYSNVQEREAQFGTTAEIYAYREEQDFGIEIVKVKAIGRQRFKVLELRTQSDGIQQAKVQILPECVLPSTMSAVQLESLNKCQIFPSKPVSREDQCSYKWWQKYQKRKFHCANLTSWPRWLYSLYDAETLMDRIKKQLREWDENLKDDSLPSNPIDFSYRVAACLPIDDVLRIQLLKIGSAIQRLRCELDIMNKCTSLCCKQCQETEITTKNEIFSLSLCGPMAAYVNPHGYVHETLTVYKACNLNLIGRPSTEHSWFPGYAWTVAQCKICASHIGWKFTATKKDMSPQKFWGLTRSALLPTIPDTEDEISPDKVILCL
row,SMILES,Activity [%]
1,CC(C)(c1ccc(OCC(=O)NCCNc2ccc3c(c2)C(=O)N(C2CCC(=O)NC2=O)C3=O)cc1)c1ccc(OCC(O)CCl)cc1 (stereo not given),< 10
2,CC(C)(c1ccc(OCC(=O)N2CCC(N3CCN(c4ccc5c(c4)C(=O)N(C4CCC(=O)NC4=O)C5=O)CC3)CC2)cc1)c1ccc(OCC(O)CCl)cc1 (stereo not given),< 10
3,CC(C)(c1ccc(OCC(=O)NCCN2CCN(c3cccc4c3C(=O)N(C3CCC(=O)NC3=O)C4=O)CC2)cc1)c1ccc(OCc2cccc(N3CCOCC3)n2)cc1 (stereo not given),< 10
4,CC(C)(c1ccc(OCC(=O)N2CCC(CNc3ccc4c(c3)C(=O)N(C3CCC(=O)NC3=O)C4=O)CC2)cc1)c1ccc(OCC(O)CCl)cc1 (stereo not given),79.9
5,CC(C)(c1ccc(OCCCNc2cccc3c2C(=O)N(C2CCC(=O)NC2=O)C3=O)cc1)c1ccc(OCC(O)CCl)cc1 (stereo not given),83.1
6,CC(C)(c1ccc(OCC(=O)NCCCNc2cccc3c2C(=O)N(C2CCC(=O)NC2=O)C3=O)cc1)c1ccc(OCc2cccc(N3CCOCC3)n2)cc1 (stereo not given),55.5
7,CC(C)(c1ccc(OCC(=O)NCCCNc2ccc3c(c2)C(=O)N(C2CCC(=O)NC2=O)C3=O)cc1)c1ccc(OCC(O)CCl)cc1 (stereo not given),< 10
8,CC(C)(c1ccc(OCC(=O)NC2CN(c3ccc4c(c3)C(=O)N(C3CCC(=O)NC3=O)C4=O)C2)cc1)c1ccc(OCC(O)CCl)cc1 (stereo not given),69.8
9,CC(C)(c1ccc(OCC(=O)NC2CCN(c3ccc4c(c3)C(=O)N(C3CCC(=O)NC3=O)C4=O)CC2)cc1)c1ccc(OCC(O)CCl)cc1 (stereo not given),71.4
10,CC(C)(c1ccc(OCCNc2cccc3c2C(=O)N(C2CCC(=O)NC2=O)C3=O)cc1)c1ccc(OCC(O)CCl)cc1 (stereo not given),87
11,CC(C)(c1ccc(OCC(=O)NCCCCCCNc2ccc3c(c2)C(=O)N(C2CCC(=O)NC2=O)C3=O)cc1)c1ccc(OCC(O)CCl)cc1 (stereo not given),< 10
12,CC(C)(c1ccc(OCC(=O)NCCCCCNc2ccc3c(c2)C(=O)N(C2CCC(=O)NC2=O)C3=O)cc1)c1ccc(OCC(O)CCl)cc1 (stereo not given),< 10

# System: Protein cereblon/Androgen receptor (Homo sapiens), P10275+Q96SW2 [UNDEFINED MUTATION]
# Assay: PROTAC activity at AR-V7/CRBN in human 22Rv1 cells assessed as induction of AR-V7 degradation at 1 uM incubated for 24 hrs by Western blot analysis relative to control
# Assay type: cell-based
# Details: CWR22R
row,SMILES,Activity [%]
1,CC(C)(c1ccc(OCC(=O)NCCNc2ccc3c(c2)C(=O)N(C2CCC(=O)NC2=O)C3=O)cc1)c1ccc(OCC(O)CCl)cc1 (stereo not given),< 10
2,CC(C)(c1ccc(OCC(=O)N2CCC(N3CCN(c4ccc5c(c4)C(=O)N(C4CCC(=O)NC4=O)C5=O)CC3)CC2)cc1)c1ccc(OCC(O)CCl)cc1 (stereo not given),33.2
3,CC(C)(c1ccc(OCC(=O)NCCN2CCN(c3cccc4c3C(=O)N(C3CCC(=O)NC3=O)C4=O)CC2)cc1)c1ccc(OCc2cccc(N3CCOCC3)n2)cc1 (stereo not given),< 10
4,CC(C)(c1ccc(OCC(=O)N2CCC(CNc3ccc4c(c3)C(=O)N(C3CCC(=O)NC3=O)C4=O)CC2)cc1)c1ccc(OCC(O)CCl)cc1 (stereo not given),< 10
5,CC(C)(c1ccc(OCCCNc2cccc3c2C(=O)N(C2CCC(=O)NC2=O)C3=O)cc1)c1ccc(OCC(O)CCl)cc1 (stereo not given),58.7
6,CC(C)(c1ccc(OCC(=O)NCCCNc2cccc3c2C(=O)N(C2CCC(=O)NC2=O)C3=O)cc1)c1ccc(OCc2cccc(N3CCOCC3)n2)cc1 (stereo not given),< 10
7,CC(C)(c1ccc(OCC(=O)NCCCNc2ccc3c(c2)C(=O)N(C2CCC(=O)NC2=O)C3=O)cc1)c1ccc(OCC(O)CCl)cc1 (stereo not given),< 10
8,CC(C)(c1ccc(OCC(=O)NC2CN(c3ccc4c(c3)C(=O)N(C3CCC(=O)NC3=O)C4=O)C2)cc1)c1ccc(OCC(O)CCl)cc1 (stereo not given),62.1
9,CC(C)(c1ccc(OCC(=O)NC2CCN(c3ccc4c(c3)C(=O)N(C3CCC(=O)NC3=O)C4=O)CC2)cc1)c1ccc(OCC(O)CCl)cc1 (stereo not given),68.8
10,CC(C)(c1ccc(OCCNc2cccc3c2C(=O)N(C2CCC(=O)NC2=O)C3=O)cc1)c1ccc(OCC(O)CCl)cc1 (stereo not given),87.2
11,CC(C)(c1ccc(OCC(=O)NCCCCCCNc2ccc3c(c2)C(=O)N(C2CCC(=O)NC2=O)C3=O)cc1)c1ccc(OCC(O)CCl)cc1 (stereo not given),32.2
12,CC(C)(c1ccc(OCC(=O)NCCCCCNc2ccc3c(c2)C(=O)N(C2CCC(=O)NC2=O)C3=O)cc1)c1ccc(OCC(O)CCl)cc1 (stereo not given),< 10

# System: CWR22R
# Assay: Antiproliferative activity against human 22Rv1 cells incubated for 4 days by CCK-8 assay
# Assay type: functional, cell-based
# Details: 22Rv1, 96 h
row,SMILES,pIC50
1,CC(C)(c1ccc(OCC(=O)NCCNc2ccc3c(c2)C(=O)N(C2CCC(=O)NC2=O)C3=O)cc1)c1ccc(OCC(O)CCl)cc1 (stereo not given),< 4.70
2,CC(C)(c1ccc(OCC(=O)N2CCC(N3CCN(c4ccc5c(c4)C(=O)N(C4CCC(=O)NC4=O)C5=O)CC3)CC2)cc1)c1ccc(OCC(O)CCl)cc1 (stereo not given),< 4.70
3,CC(C)(c1ccc(OCC(=O)NCCN2CCN(c3cccc4c3C(=O)N(C3CCC(=O)NC3=O)C4=O)CC2)cc1)c1ccc(OCc2cccc(N3CCOCC3)n2)cc1 (stereo not given),< 4.70
4,CC(C)(c1ccc(OCC(=O)N2CCC(CNc3ccc4c(c3)C(=O)N(C3CCC(=O)NC3=O)C4=O)CC2)cc1)c1ccc(OCC(O)CCl)cc1 (stereo not given),4.82
5,CC(C)(c1ccc(OCCCNc2cccc3c2C(=O)N(C2CCC(=O)NC2=O)C3=O)cc1)c1ccc(OCC(O)CCl)cc1 (stereo not given),5.01
6,CC(C)(c1ccc(OCC(=O)NCCCNc2cccc3c2C(=O)N(C2CCC(=O)NC2=O)C3=O)cc1)c1ccc(OCc2cccc(N3CCOCC3)n2)cc1 (stereo not given),5.13
7,CC(C)(c1ccc(OCC(=O)NCCCNc2ccc3c(c2)C(=O)N(C2CCC(=O)NC2=O)C3=O)cc1)c1ccc(OCC(O)CCl)cc1 (stereo not given),< 4.70
8,CC(C)(c1ccc(OCC(=O)NC2CN(c3ccc4c(c3)C(=O)N(C3CCC(=O)NC3=O)C4=O)C2)cc1)c1ccc(OCC(O)CCl)cc1 (stereo not given),< 4.70
9,CC(C)(c1ccc(OCC(=O)NC2CCN(c3ccc4c(c3)C(=O)N(C3CCC(=O)NC3=O)C4=O)CC2)cc1)c1ccc(OCC(O)CCl)cc1 (stereo not given),5.44
10,CC(C)(c1ccc(OCCNc2cccc3c2C(=O)N(C2CCC(=O)NC2=O)C3=O)cc1)c1ccc(OCC(O)CCl)cc1 (stereo not given),5.11
11,CC(C)(c1ccc(OCC(=O)NCCCCCCNc2ccc3c(c2)C(=O)N(C2CCC(=O)NC2=O)C3=O)cc1)c1ccc(OCC(O)CCl)cc1 (stereo not given),4.94
12,CC(C)(c1ccc(OCC(=O)NCCCCCNc2ccc3c(c2)C(=O)N(C2CCC(=O)NC2=O)C3=O)cc1)c1ccc(OCC(O)CCl)cc1 (stereo not given),< 4.70

# Target: T1, Protein cereblon/Androgen receptor (Homo sapiens, UniProt P10275+Q96SW2)
# Assay: PROTAC activity at full length Androgen receptor/CRBN in human 22Rv1 cells assessed as induction of full length Androgen receptor degradation at 5 uM incubated for 24 hrs by Western blot analysis relative to control
# Assay type: cell-based
# Details: not given
# T1 sequence (P10275 whole entry, looked up): as the sequence (P10275 whole entry, looked up, change not shown) above
# T1 sequence (Q96SW2 whole entry, looked up): as the sequence (Q96SW2 whole entry, looked up, change not shown) above
row,SMILES,Activity [%]
1,CC(C)(c1ccc(OCC(=O)NCCNc2ccc3c(c2)C(=O)N(C2CCC(=O)NC2=O)C3=O)cc1)c1ccc(OCC(O)CCl)cc1 (stereo not given),< 10
2,CC(C)(c1ccc(OCC(=O)N2CCC(N3CCN(c4ccc5c(c4)C(=O)N(C4CCC(=O)NC4=O)C5=O)CC3)CC2)cc1)c1ccc(OCC(O)CCl)cc1 (stereo not given),< 10
3,CC(C)(c1ccc(OCC(=O)NCCN2CCN(c3cccc4c3C(=O)N(C3CCC(=O)NC3=O)C4=O)CC2)cc1)c1ccc(OCc2cccc(N3CCOCC3)n2)cc1 (stereo not given),< 10
4,CC(C)(c1ccc(OCC(=O)N2CCC(CNc3ccc4c(c3)C(=O)N(C3CCC(=O)NC3=O)C4=O)CC2)cc1)c1ccc(OCC(O)CCl)cc1 (stereo not given),69.6
5,CC(C)(c1ccc(OCCCNc2cccc3c2C(=O)N(C2CCC(=O)NC2=O)C3=O)cc1)c1ccc(OCC(O)CCl)cc1 (stereo not given),58.3
6,CC(C)(c1ccc(OCC(=O)NCCCNc2cccc3c2C(=O)N(C2CCC(=O)NC2=O)C3=O)cc1)c1ccc(OCc2cccc(N3CCOCC3)n2)cc1 (stereo not given),78.6
7,CC(C)(c1ccc(OCC(=O)NCCCNc2ccc3c(c2)C(=O)N(C2CCC(=O)NC2=O)C3=O)cc1)c1ccc(OCC(O)CCl)cc1 (stereo not given),< 10
8,CC(C)(c1ccc(OCC(=O)NC2CN(c3ccc4c(c3)C(=O)N(C3CCC(=O)NC3=O)C4=O)C2)cc1)c1ccc(OCC(O)CCl)cc1 (stereo not given),22.3
9,CC(C)(c1ccc(OCC(=O)NC2CCN(c3ccc4c(c3)C(=O)N(C3CCC(=O)NC3=O)C4=O)CC2)cc1)c1ccc(OCC(O)CCl)cc1 (stereo not given),45.2
10,CC(C)(c1ccc(OCCNc2cccc3c2C(=O)N(C2CCC(=O)NC2=O)C3=O)cc1)c1ccc(OCC(O)CCl)cc1 (stereo not given),< 10
11,CC(C)(c1ccc(OCC(=O)NCCCCCCNc2ccc3c(c2)C(=O)N(C2CCC(=O)NC2=O)C3=O)cc1)c1ccc(OCC(O)CCl)cc1 (stereo not given),72.1
12,CC(C)(c1ccc(OCC(=O)NCCCCCNc2ccc3c(c2)C(=O)N(C2CCC(=O)NC2=O)C3=O)cc1)c1ccc(OCC(O)CCl)cc1 (stereo not given),< 10

# Target: T1, Protein cereblon/Androgen receptor
# Assay: PROTAC activity at full length Androgen receptor/CRBN in human 22Rv1 cells assessed as induction of full length Androgen receptor degradation at 1 uM incubated for 24 hrs by Western blot analysis relative to control
# Assay type: cell-based
# Details: not given
row,SMILES,Activity [%]
1,CC(C)(c1ccc(OCC(=O)NCCNc2ccc3c(c2)C(=O)N(C2CCC(=O)NC2=O)C3=O)cc1)c1ccc(OCC(O)CCl)cc1 (stereo not given),< 10
2,CC(C)(c1ccc(OCC(=O)N2CCC(N3CCN(c4ccc5c(c4)C(=O)N(C4CCC(=O)NC4=O)C5=O)CC3)CC2)cc1)c1ccc(OCC(O)CCl)cc1 (stereo not given),< 10
3,CC(C)(c1ccc(OCC(=O)NCCN2CCN(c3cccc4c3C(=O)N(C3CCC(=O)NC3=O)C4=O)CC2)cc1)c1ccc(OCc2cccc(N3CCOCC3)n2)cc1 (stereo not given),< 10
4,CC(C)(c1ccc(OCC(=O)N2CCC(CNc3ccc4c(c3)C(=O)N(C3CCC(=O)NC3=O)C4=O)CC2)cc1)c1ccc(OCC(O)CCl)cc1 (stereo not given),< 10
5,CC(C)(c1ccc(OCCCNc2cccc3c2C(=O)N(C2CCC(=O)NC2=O)C3=O)cc1)c1ccc(OCC(O)CCl)cc1 (stereo not given),52.1
6,CC(C)(c1ccc(OCC(=O)NCCCNc2cccc3c2C(=O)N(C2CCC(=O)NC2=O)C3=O)cc1)c1ccc(OCc2cccc(N3CCOCC3)n2)cc1 (stereo not given),22.1
7,CC(C)(c1ccc(OCC(=O)NCCCNc2ccc3c(c2)C(=O)N(C2CCC(=O)NC2=O)C3=O)cc1)c1ccc(OCC(O)CCl)cc1 (stereo not given),< 10
8,CC(C)(c1ccc(OCC(=O)NC2CN(c3ccc4c(c3)C(=O)N(C3CCC(=O)NC3=O)C4=O)C2)cc1)c1ccc(OCC(O)CCl)cc1 (stereo not given),< 10
9,CC(C)(c1ccc(OCC(=O)NC2CCN(c3ccc4c(c3)C(=O)N(C3CCC(=O)NC3=O)C4=O)CC2)cc1)c1ccc(OCC(O)CCl)cc1 (stereo not given),75.2
10,CC(C)(c1ccc(OCCNc2cccc3c2C(=O)N(C2CCC(=O)NC2=O)C3=O)cc1)c1ccc(OCC(O)CCl)cc1 (stereo not given),82.5
11,CC(C)(c1ccc(OCC(=O)NCCCCCCNc2ccc3c(c2)C(=O)N(C2CCC(=O)NC2=O)C3=O)cc1)c1ccc(OCC(O)CCl)cc1 (stereo not given),84.1
12,CC(C)(c1ccc(OCC(=O)NCCCCCNc2ccc3c(c2)C(=O)N(C2CCC(=O)NC2=O)C3=O)cc1)c1ccc(OCC(O)CCl)cc1 (stereo not given),< 10
